Test results as given in PMC12344683, “N-alkyl and N-benzyl indoles are anti-SARS-CoV-2 agents and nsp13 inhibitors” (Journal of Enzyme Inhibition and Medicinal Chemistry, 2025).

Key:
SARS-CoV-2 nsp13 [1] = target: T1, SARS-CoV-2 nsp13 (Severe acute respiratory syndrome coronavirus 2, UniProt P0DTD1); experiment: SARS-CoV-2 nsp13 unwinding-associated activity (fluorescence, BSA-TCEP); format: biochemical; settings: for IC50: SARS-CoV-2 nsp13-associated unwinding activity, from dose-response curves; for remaining activity at 30 µM: read-out: Percentage of enzymatic residual activity (unwinding)
SARS-CoV-2 nsp13 [2] = target: T1, SARS-CoV-2 nsp13; experiment: SARS-CoV-2 nsp13 ATPase-associated activity (Biomol Green, BSA-TCEP); format: biochemical; settings: for IC50: SARS-CoV-2 nsp13-associated ATPase activity, from dose-response curves; for remaining activity at 30 µM: read-out: Percentage of enzymatic residual activity (ATPase)
[3] = Cellular toxicity assay (GFP signal as viability); format: cell-based; settings: African green monkey; Vero cells; read-out: CC50, concentration required to reduce Vero cells viability by 50%
Procedure: Vero E6-green fluorescent protein (GFP) cells (Janssen Pharmaceutical were maintained in Dulbecco’s modified Eagle’s medium (DMEM, Gibco) supplemented with 10% v/v foetal beef serum (FBS, Gibco), 0.075% Sodium Bicarbonate (7.5% solution, Gibco) and 1X Pen-strep (Euroclone) and kept under 5% CO2 on 37 ◦C. The cells were seeded at 10 000 cells/well in 96-well black cell-treated plates (PerkinElmer). The following day, cells were incubated with the control compounds at different concentrations. Compound was dissolved in 0.1% DMSO. Seventy-two hours post infection the GPF signal, as direct index of cellular viability, was quantified by measuring the total-well fluorescence with a Victor 3 multiplate reader (PerkinElmer) set to excitation and emission wavelengths of 485 and 535 nm, respectively.
The percentage of induced cytopathic effects (CPE) was calculated considering the mock as 100% of cell viability, and the readout from empty wells as blank. The compound half-maximal cytopathic concentration (CC50), was determined via non-linear regression by using on Prism 9 v. 9.4.1 software (GraphPad) the built-in function dose-response inhibition, log-concentration-normalized response. Experimental points represent the average and standard deviation of at least two sets of independent triplicates.

[4] = read-out: Activity in enzyme assay IC50 Unwinding BSA-TCEP
[5] = read-out: Activity in enzyme assay IC50 ATPase BSA-TCEP
[6] = Activity in enzyme assay IC50 Unwinding BSA-TCEP
[7] = Activity in enzyme assay IC50 ATPase BSA-TCEP

Row | SMILES | IC50 (SARS-CoV-2 nsp13 [1]; [4]) [µM] | IC50 (SARS-CoV-2 nsp13 [2]; [5]) [µM] | IC50 (SARS-CoV-2 nsp13 [1]; [6]) [µM] | IC50 (SARS-CoV-2 nsp13 [2]; [7]) [µM] | further results
1 | CCOC(=O)/C(O)=C/C(=O)/C=C/c1cn(C=C(C)C)c2ccccc12 [10c, Ethyl (2Z,5E)-2-hydroxy-6-(1-(2-methylprop-1-en-1-yl)-1H-indol-3-yl)-4-oxohexa-2,5-dienoate] | 19.3 ± 0.76 | 4.93 ± 1.4 |  |  | 
2 | CCOC(=O)/C(O)=C/C(=O)c1cn(Cc2ccc(C)cc2)c2ccccc12 [8b] |  |  | 13.2 ± 2.76 | 7.01 ± 0.05 | 
3 | CC(C)c1ccc(Cn2cc(C(=O)/C=C(\O)C(=O)O)c3ccccc32)cc1 [7c] |  |  | 14.1 ± 0.48 | 13 ± 1.08 | 
4 | CCn1cc(/C=C/C(=O)/C=C(\O)C(=O)O)c2ccccc21 [9d] | 11.8 ± 4.03 | 8.32 ± 0.08 |  |  | 
5 | CCOC(=O)/C(O)=C/C(=O)/C=C/c1cn(Cc2ccc(C)cc2)c2ccccc12 [6b] | 7.34 ± 1.81 | 2.88 ± 0.59 |  |  | 
6 | CC(C)CCn1cc(/C=C/C(=O)/C=C(\O)C(=O)O)c2ccccc21 [9f, (2Z,5E)-2-hydroxy-6-(1-isopentyl-1H-indol-3-yl)-4-oxohexa-2,5-dienoic acid] | 15.9 ± 0.59 | 23.1 ± 1.41 |  |  | 
7 | C/C=C/Cn1cc(/C=C/C(=O)/C=C(\O)C(=O)OCC)c2ccccc21 [10a, Ethyl (2Z,5E)-6-(1-((E)-but-2-en-1-yl)-1H-indol-3-yl)-2-hydroxy-4-oxohexa-2,5-dienoate] | 13.2 ± 1.86 | 8.79 ± 0.69 |  |  | 
8 | O=C(O)/C(O)=C/C(=O)c1cn(Cc2ccc(OC(F)(F)F)cc2)c2ccccc12 [7e] |  |  | 22.2 ± 1.37 | 20.3 | 
9 | CCOC(=O)/C(O)=C/C(=O)/C=C/c1cn(Cc2ccc(O)cc2)c2ccccc12 [6h, Ethyl (2Z,5E)-2-hydroxy-6-(1-(4-hydroxybenzyl)-1H-indol-3-yl)-4-oxohexa-2,5-dienoate] | 15.4 ± 1.47 | 3.7 ± 0.74 |  |  | 
10 | CCOC(=O)/C(O)=C/C(=O)/C=C/c1cn(CCC(C)C)c2ccccc12 [10f, Ethyl (2Z,5E)-2-hydroxy-6-(1-isopentyl-1H-indol-3-yl)-4-oxohexa-2,5-dienoate] | 13.5 ± 0.25 | 6.27 ± 0.2 |  |  | 
11 | CCCCn1cc(/C=C/C(=O)/C=C(\O)C(=O)OCC)c2ccccc21 [10e, Ethyl (2Z,5E)-6-(1-butyl-1H-indol-3-yl)-2-hydroxy-4-oxohexa-2,5-dienoate] | 14.8 ± 1.18 | 5.72 ± 1.63 |  |  | 
12 | COc1ccc(Cn2cc(C(=O)/C=C(\O)C(=O)O)c3ccccc32)cc1 [7a] |  |  | > 30 | > 30 | remaining activity at 30 µM (SARS-CoV-2 nsp13 [1]): 50.4%; remaining activity at 30 µM (SARS-CoV-2 nsp13 [2]): 73.4%
13 | CCOC(=O)/C(O)=C/C(=O)/C=C/c1cn(S(=O)(=O)c2ccccc2)c2ccccc12 [6f] | 11 ± 0.37 | 7.07 ± 0.74 |  |  | 
14 | CC(C)=Cn1cc(/C=C/C(=O)/C=C(\O)C(=O)O)c2ccccc21 [9c, (2Z,5E)-2-hydroxy-6-(1-(2-methylprop-1-en-1-yl)-1H-indol-3-yl)-4-oxohexa-2,5-dienoic acid] | 1.56 ± 0.16 | > 30 |  |  | CC50 at 72 h [3]: > 100 µM; remaining activity at 30 µM (SARS-CoV-2 nsp13 [2]; measured at 30 µM): 98.6%
15 | N#Cc1ccc(Cn2cc(/C=C/C(=O)/C=C(\O)C(=O)O)c3ccccc32)cc1 [5g, (2Z,5E)-6-(1-(4-cyanobenzyl)-1H-indol-3-yl)-2-hydroxy-4-oxohexa-2,5-dienoic acid] | 2.08 ± 0.04 | 1.91 ± 0.31 |  |  | CC50 at 72 h [3]: > 100 µM
16 | C/C=C/Cn1cc(/C=C/C(=O)/C=C(\O)C(=O)O)c2ccccc21 [9a, (2Z,5E)-6-(1-((E)-but-2-en-1-yl)-1H-indol-3-yl)-2-hydroxy-4-oxohexa-2,5-dienoic acid] | 19.4 ± 3.7 | > 30 |  |  | remaining activity at 30 µM (SARS-CoV-2 nsp13 [2]; measured at 30 µM): 70%
17 | CCOC(=O)/C(O)=C/C(=O)c1cn(Cc2ccccc2)c2ccccc12 [8j, Ethyl (Z)-4-(1-benzyl-1H-indol-3-yl)-2-hydroxy-4-oxobut-2-enoate] |  |  | 26 ± 0.89 | 14.5 ± 1.49 | 
18 | CCOC(=O)/C(O)=C/C(=O)/C=C/c1cn(Cc2ccc(C(C)C)cc2)c2ccccc12 [6c] | 5.81 ± 0.47 | 5.8 ± 0.12 |  |  | 
19 | CCOC(=O)/C(O)=C/C(=O)/C=C/c1cn(Cc2ccc(OC(F)(F)F)cc2)c2ccccc12 [6e] | 5.66 ± 0.21 | 2.17 ± 0.26 |  |  | CC50 at 72 h [3]: > 100 µM
20 | C=C(C)Cn1cc(/C=C/C(=O)/C=C(\O)C(=O)OCC)c2ccccc21 [10b, Ethyl (2Z,5E)-2-hydroxy-6-(1-(2-methylallyl)-1H-indol-3-yl)-4-oxohexa-2,5-dienoate] | 21.5 ± 0.23 | 7.26 ± 0.65 |  |  | 

Row | SMILES | IC50 (SARS-CoV-2 nsp13 [1]; [4]) [µM] | IC50 (SARS-CoV-2 nsp13 [2]; [5]) [µM] | IC50 (SARS-CoV-2 nsp13 [1]; [6]) [µM] | IC50 (SARS-CoV-2 nsp13 [2]; [7]) [µM] | further results
21 | CCOC(=O)/C(O)=C/C(=O)c1cn(Cc2ccc(OC(F)(F)F)cc2)c2ccccc12 [8e] |  |  | 11.3 ± 0.65 | 2.29 ± 0.02 | 
22 | CCOC(=O)/C(O)=C/C(=O)/C=C/c1cn(Cc2ccc(F)cc2)c2ccc(Cl)cc12 [6i, Ethyl (2Z,5E)-6-(5-chloro-1-(4-fluorobenzyl)-1H-indol-3-yl)-2-hydroxy-4-oxohexa-2,5-dienoate] | 5.22 ± 0.44 | 3.92 ± 0.96 |  |  | 
23 | O=C(/C=C(\O)C(=O)O)/C=C/c1cn(S(=O)(=O)c2ccccc2)c2ccccc12 [5f] | 7.54 ± 0.76 | 5.36 ± 0.74 |  |  | 
24 | O=C(O)/C(O)=C/C(=O)c1cn(Cc2ccccc2)c2ccccc12 [7j, (Z)-4-(1-benzyl-1H-indol-3-yl)-2-hydroxy-4-oxobut-2-enoic acid] |  |  | 30 ± 1.5 | 10.3 ± 1.75 | 
25 | Cc1ccc(Cn2cc(C(=O)/C=C(\O)C(=O)O)c3ccccc32)cc1 [7b] |  |  | 20.6 ± 3.22 | 8.33 ± 0.45 | 
26 | C=C(C)Cn1cc(/C=C/C(=O)/C=C(\O)C(=O)O)c2ccccc21 [9b, (2Z,5E)-2-hydroxy-6-(1-(2-methylallyl)-1H-indol-3-yl)-4-oxohexa-2,5-dienoic acid] | > 30 | > 30 |  |  | remaining activity at 30 µM (SARS-CoV-2 nsp13 [1]; measured at 30 µM): 72%; remaining activity at 30 µM (SARS-CoV-2 nsp13 [2]; measured at 30 µM): 68%
27 | Cc1ccc(Cn2cc(/C=C/C(=O)/C=C(\O)C(=O)O)c3ccccc32)cc1 [5b] | 13.6 ± 1.96 | 3.83 ± 0.45 |  |  | 
28 | CCOC(=O)/C(O)=C/C(=O)/C=C/c1cn(CC)c2ccccc12 [10d] | 11.8 ± 4.03 | 18.5 ± 0.65 |  |  | 
29 | CCOC(=O)/C(O)=C/C(=O)/C=C/c1cn(Cc2ccc(C#N)cc2)c2ccccc12 [6g, Ethyl (2Z,5E)-6-(1-(4-cyanobenzyl)-1H-indol-3-yl)-2-hydroxy-4-oxohexa-2,5-dienoate] | 6.76 ± 1.18 | 6.24 ± 0.24 |  |  | 
30 | CCOC(=O)/C(O)=C/C(=O)c1cn(Cc2ccc(F)cc2)c2ccccc12 [8d, Ethyl (Z)-4-(1-(4-fluorobenzyl)-1H-indol-3-yl)-2-hydroxy-4-oxobut-2-enoate] |  |  | 1.73 ± 0.53 | 8.7 ± 0.53 | CC50 at 72 h [3]: > 100 µM
31 | COc1ccc(Cn2cc(/C=C/C(=O)/C=C(\O)C(=O)O)c3ccccc32)cc1 [5a, (2Z,5E)-2-hydroxy-6-(1-(4-methoxybenzyl)-1H-indol-3-yl)-4-oxohexa-2,5-dienoic acid] | 10.5 ± 0.81 | 19.9 ± 0.73 |  |  | 
32 | O=C(/C=C(\O)C(=O)O)/C=C/c1cn(Cc2ccc(O)cc2)c2ccccc12 [5h, (2Z,5E)-2-hydroxy-6-(1-(4-hydroxybenzyl)-1H-indol-3-yl)-4-oxohexa-2,5-dienoic acid] | 2.77 ± 0.42 | 9.1 ± 3.4 |  |  | 
33 | CCOC(=O)/C(O)=C/C(=O)/C=C/c1cn(Cc2ccc(F)cc2)c2ccccc12 [6d, Ethyl (2Z,5E)-6-(1-(4-fluorobenzyl)-1H-indol-3-yl)-2-hydroxy-4-oxohexa-2,5-dienoate] | 3.64 ± 0.11 | 3.22 ± 0.14 |  |  | 
34 | O=C(/C=C(\O)C(=O)O)/C=C/c1cn(Cc2ccc(F)cc2)c2ccccc12 [5d, (2Z,5E)-6-(1-(4-fluorobenzyl)-1H-indol-3-yl)-2-hydroxy-4-oxohexa-2,5-dienoic acid] | 7.63 ± 2.48 | 9.91 ± 0.5 |  |  | 
35 | O=C(O)/C(O)=C/C(=O)c1cn(Cc2ccc(F)cc2)c2ccccc12 [7d, (Z)-4-(1-(4-fluorobenzyl)-1H-indol-3-yl)-2-hydroxy-4-oxobut-2-enoic acid] |  |  | > 30 | > 30 | remaining activity at 30 µM (SARS-CoV-2 nsp13 [1]): 50%; remaining activity at 30 µM (SARS-CoV-2 nsp13 [2]): 70%
36 | CC[C@@]1(O)C(=O)OCc2c1cc1n(c2=O)Cc2cc3ccccc3nc2-1 [Camptothecin, reference compound] |  |  |  |  | CC50 at 72 h [3]: 11.1 ± 0.16 µM
37 | CCOC(=O)/C(O)=C/C(=O)c1cn(Cc2ccc(C(C)C)cc2)c2ccccc12 [8c] |  |  | 9.66 ± 2.89 | 9.64 ± 2.27 | 
38 | CCOC(=O)/C(O)=C/C(=O)c1cn(Cc2ccc(OC)cc2)c2ccccc12 [8a] |  |  | 13.1 ± 1.78 | 8.06 ± 1.78 | 
39 | CCOC(=O)/C(O)=C/C(=O)/C=C/c1cn(Cc2ccc(OC)cc2)c2ccccc12 [6a, Ethyl (2Z,5E)-2-hydroxy-6-(1-(4-methoxybenzyl)-1H-indol-3-yl)-4-oxohexa-2,5-dienoate] | 6.65 ± 1.2 | 2.21 ± 0.26 |  |  | 
40 | CCCCn1cc(/C=C/C(=O)/C=C(\O)C(=O)O)c2ccccc21 [9e, (2Z,5E)-6-(1-butyl-1H-indol-3-yl)-2-hydroxy-4-oxohexa-2,5-dienoic acid] |  | > 30 |  |  | remaining activity at 30 µM (SARS-CoV-2 nsp13 [1]; measured at 30 µM): 41%; remaining activity at 30 µM (SARS-CoV-2 nsp13 [2]; measured at 30 µM): 100%
